Data from patent publication US20120283200A1, “PHARMACEUTICAL COMPOSITION AND METHOD FOR PREVENTING OR TREATING CHRONIC HEART DISEASE” (CHINA MEDICAL UNIVERSITY, priority 2011, published 2012).

Tested on: H9c2 cells
Test: Cell viability assay (MTT) of H9c2 cells in hypoxia-reoxygenation model
Assay type: cell-based, rat
Details: added 1 hour before hypoxia, 6 h hypoxia, 12 h reoxygenation, compounds 1, 3, 10 μM, metformin 10, 30, 100 μM, compared to the sham group, FIG. 1(b)
Method: Cell Viability Assay of H9c2 Cell in Hypoxia-Reoxygenation Model
Rat embryonic ventricular myoblast cell line, H9c2, are cultured in a DMEM medium supplemented with 10% fetal bovine serum (FBS), penicillin (10 U/mL), streptomycin (100 μg/mL) and amphotericin B (0.25 μg/mL) in 37° C. humidified 5% carbon dioxide (CO2) incubator. When the plate becomes confluent, maintain the culture at a 1:4 subculture split.
(1) H9c2 cells are cultured on a 60 mm plate (6×10^5 cells/plate) containing 10% FBS DMEM (high glucose DMEM) for 24 hours. The medium is replaced with DMEM with no serum for the starvation. At the same time, a medium containing DMEM with no glucose and no serum is adjusted to pH 6.8 and placed into a hypoxia chamber (95% N2 and 5% CO2, 37° C.) where the oxygen partial pressure is controlled to be less than 2% for a pretreatment for 24 hours. […]
Please refer to FIGS. 1(a) and 1(b), which are diagrams showing the effects of the compounds in the present invention and metformin on the viability of cells treated by the hypoxia-reoxygenation. The results are represented by the absorbance (OD) values of the hypoxia-reoxygenation treated group (IR OD)/the OD values of the control group (control OD) in FIG. 1(a) and the OD values of the drug-treated group (drug OD)/the OD values of the sham group (sham OD).

Structure (SMILES) | viability of the cells treated with the hypoxia-reoxygenation (drug OD/sham OD)
COc1cc(/C=C/C(=O)OCC2OC(Oc3ccc(C[C@H]4CO[C@H](c5ccc(O)c(OC)c5)[C@H]4CO)cc3OC)C(O)C(O)C2O)ccc1O (stereo partly drawn) [RS-47, lariciresinol 4′-(6″-O-feruloyl-β-D-glucopyranoside)] | significantly increased
CN(C)C(=N)N=C(N)N [metformin] | significantly increased
